These results are taken from patent US9624214B2, “Amino-substituted imidazo[1,2-a]pyridinecarboxamides and their use” (BAYER PHARMA AKTIENGESELLSCHAFT, priority 2012, dated 2017).

Where a name gives a salt, the structure may show the parent alone.

The target in the test is T1, recombinant guanylate cyclase reporter cell line (Rattus norvegicus, UniProt P19686+P20595).
T1 construct: expressed in transfected cells
T1 sequence (P20595 1-619): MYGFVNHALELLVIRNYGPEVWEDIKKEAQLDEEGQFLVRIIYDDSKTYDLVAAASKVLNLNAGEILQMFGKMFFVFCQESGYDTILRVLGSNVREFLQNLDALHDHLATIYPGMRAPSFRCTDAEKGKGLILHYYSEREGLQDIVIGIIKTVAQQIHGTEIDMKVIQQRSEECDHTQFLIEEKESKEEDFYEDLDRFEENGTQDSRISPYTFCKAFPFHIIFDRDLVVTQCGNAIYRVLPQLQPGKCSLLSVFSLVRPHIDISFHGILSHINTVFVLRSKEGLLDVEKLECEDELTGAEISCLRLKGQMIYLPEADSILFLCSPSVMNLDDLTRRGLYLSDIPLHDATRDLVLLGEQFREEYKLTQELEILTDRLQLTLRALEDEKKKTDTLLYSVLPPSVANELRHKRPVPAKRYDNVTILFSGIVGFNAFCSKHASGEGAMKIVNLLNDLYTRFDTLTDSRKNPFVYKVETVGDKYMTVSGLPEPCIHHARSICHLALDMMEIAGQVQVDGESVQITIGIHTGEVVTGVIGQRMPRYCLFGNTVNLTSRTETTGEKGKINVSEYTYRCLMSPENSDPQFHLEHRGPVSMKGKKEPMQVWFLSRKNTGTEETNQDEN
T1 sequence (P19686 1-690): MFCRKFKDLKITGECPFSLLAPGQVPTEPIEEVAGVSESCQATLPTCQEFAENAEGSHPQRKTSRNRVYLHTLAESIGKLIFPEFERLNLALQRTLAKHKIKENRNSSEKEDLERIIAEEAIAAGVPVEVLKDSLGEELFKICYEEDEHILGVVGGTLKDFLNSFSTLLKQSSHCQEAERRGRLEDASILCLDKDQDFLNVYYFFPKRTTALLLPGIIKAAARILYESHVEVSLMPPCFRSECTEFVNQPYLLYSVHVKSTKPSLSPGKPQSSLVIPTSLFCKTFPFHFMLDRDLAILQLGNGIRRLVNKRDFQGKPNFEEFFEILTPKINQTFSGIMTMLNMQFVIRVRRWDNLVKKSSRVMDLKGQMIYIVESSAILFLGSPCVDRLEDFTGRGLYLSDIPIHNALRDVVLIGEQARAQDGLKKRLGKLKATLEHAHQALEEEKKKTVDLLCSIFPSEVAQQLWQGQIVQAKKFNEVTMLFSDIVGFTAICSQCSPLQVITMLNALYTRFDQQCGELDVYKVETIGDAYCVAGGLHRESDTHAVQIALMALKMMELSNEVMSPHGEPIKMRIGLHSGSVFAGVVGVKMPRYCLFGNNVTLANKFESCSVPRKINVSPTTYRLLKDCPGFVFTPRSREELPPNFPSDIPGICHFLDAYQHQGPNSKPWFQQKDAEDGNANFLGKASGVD
The test is described as follows: B-2. Action on recombinant guanylate cyclase reporter cell line. The class given is cell-based. The following applies: MEC = minimal effective concentration; in some cases mean values from individual determinations. The essentials: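 Reported value is the minimal effective concentration (MEC), in some cases a mean of single runs, taken from a recombinant rat guanylate cyclase reporter cell line.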

On to `Cc1cc(OCc2c(F)cccc2F)c2nc(C)c(C(=O)NCC(C)(N)C3CC3)n2c1` (single isomer, unassigned; enantiomer b) [Example 261, ent-N-(2-Amino-2-cyclopropylpropyl)-8-[(2,6-difluorobenzyl)oxy]-2,6-dimethylimidazo[1,2-a]-pyridine-3-carboxamide (Enantiomer B)], for which the MEC worked out at 0.10 µM. `Cc1nc2c(OCc3c(F)cccc3F)cccn2c1C(=O)NCC(C)(N)CCOCc1ccccc1` (single isomer, unassigned; enantiomer b) [Example 267, ent-N-[2-Amino-4-(benzyloxy)-2-methylbutyl]-8-[(2,6-difluorobenzyl)oxy]-2-methylimidazo[1,2-a]pyridine-3-carboxamide (Enantiomer B)]: the MEC was determined as 0.10 µM. With `Cc1cc(OCc2c(F)cccc2F)c2nc(C)c(C(=O)NCC(C)(N)CO)n2c1` (single isomer, unassigned; enantiomer b) [Example 269, ent-N-(2-Amino-3-hydroxy-2-methylpropyl)-8-[(2,6-difluorobenzyl)oxy]-2,6-dimethylimidazo-[1,2-a]pyridine-3-carboxamide (Enantiomer B)], the MEC came out at 0.65 µM. For `CCC(C)(N)CNC(=O)c1c(C)nc2c(OCc3c(F)ccc(F)c3F)cc(C)cn12` (single isomer, unassigned; enantiomer b) [Example 275, ent-N-(2-Amino-2-methylbutyl)-2,6-dimethyl-8-[(2,3,6-trifluorobenzyl)oxy]imidazo[1,2-a]-pyridine-3-carboxamide (Enantiomer B)] the value was 0.10 µM; for `CCCC(C)(N)CNC(=O)c1c(C)nc2c(OCc3c(F)cccc3F)cc(OC)cn12` (single isomer, unassigned; enantiomer b) [Example 278, ent-N-(2-amino-2-methylpentyl)-8-[(2,6-difluorobenzyl)oxy]-6-methoxy-2-methylimidazo[1,2-a]pyridine-3-carboxamide (Enantiomer B)], 0.3 µM. Turning to `CCCC(C)(N)CNC(=O)c1c(C)nc2c(OCc3c(F)cccc3F)cc(N3CCOCC3)cn12` (single isomer, unassigned; enantiomer b) [Example 280, ent-N-(2-amino-2-methylpentyl)-8-[(2,6-difluorobenzyl)oxy]-2-methyl-6-(morpholin-4-yl)imidazo[1,2-a]pyridine-3-carboxamide (Enantiomer B)], the MEC turned out to be 0.65 µM. In the case of `CCCC(C)(N)CNC(=O)c1c(C)nc2c(OCc3c(F)cccc3F)cc(C3CC3)cn12` (single isomer, unassigned; enantiomer b) [Example 281, ent-N-(2-amino-2-methylpentyl)-6-cyclopropyl-8-[(2,6-difluorobenzyl)oxy]-2-methylimidazo[1,2-a]pyridine-3-carboxamide (Enantiomer B)], the MEC turned out to be 0.3 µM.

For the molecule `Cc1cc(OCc2c(F)cccc2F)c2nc(C)c(C(=O)NCC(C)(N)CF)n2c1` (single isomer, unassigned; enantiomer b) [Example 284, ent-N-(2-amino-3-fluoro-2-methylpropyl)-8-[(2,6-difluorobenzyl)oxy]-2,6-dimethylimidazo[1,2-a]pyridine-3-carboxamide (Enantiomer B)], the MEC amounted to 0.1 µM.

Take `Cc1cc(OCc2c(F)ccc(F)c2F)c2nc(C)c(C(=O)NCC(C)(N)CF)n2c1` (single isomer, unassigned; enantiomer b) [Example 286, ent-N-(2-amino-3-fluoro-2-methylpropyl)-2,6-dimethyl-8-[(2,3,6-trifluorobenzyl)oxy]imidazo[1,2-a]pyridine-3-carboxamide (Enantiomer B)]: the MEC was 0.1 µM.

Regarding `CCCC(C)(N)CNC(=O)c1c(C)nc2c(OCc3c(F)cccc3F)cc(C(F)F)cn12` (single isomer, unassigned; enantiomer b) [Example 289, ent-N-(2-amino-2-methylpentyl)-8-[(2,6-difluorobenzyl)oxy]-6-(difluoromethyl)-2-methylimidazo[1,2-a]pyridine-3-carboxamide Formate (Enantiomer B)], the MEC was determined as 0.3 µM.
